The text below walks through data of DBAASP.

Among the test systems are Escherichia coli O157:H7; Bacillus megaterium; Vibrio cholerae; Candida krusei ATCC 6258; Saccharomyces cerevisiae; Listeria ivanovii; Streptococcus pyogenes; Escherichia coli; Staphylococcus aureus; Pseudomonas aeruginosa; Escherichia coli ESBL; Cryptococcus neoformans; Staphylococcus aureus MR; Aspergillus fumigatus; Candida albicans; Sporothrix schenckii.
Assay in all cases: ≥ marks a high value that may be exact or a test limit, other limits are often not marked, values filed in µg/mL are converted to µM
Assay [1] has as its system Salmonella enterica subsp. enterica serovar Typhi ATCC 5784.
Assay [2] relates to Lysinibacillus sphaericus TISTR 678.
The test system of assay [3] is Salmonella enterica subsp. enterica serovar Typhi.
Assay [4] has as its system Escherichia coli ATCC 25922.
Assay [5] has as its system Candida albicans ATCC 90028.
Assay [6] concerns Cryptococcus neoformans ATCC 90012.
The test system of assay [7] is Pseudomonas aeruginosa ATCC 27853.
In assay [8] the test system is Bacillus subtilis ATCC 19659.
The subject of assay [9] is Candida parapsilosis ATCC 22019.
For assay [10], the system named is Staphylococcus aureus ATCC 25923.
The subject of assay [11] is Streptococcus pyogenes ATCC 19615.
Assay [12] has as its system Acinetobacter baumannii ATCC 19606.
Assay [13] has as its system Klebsiella pneumoniae ATCC 13883.
For assay [14], the system named is Enterococcus faecalis ATCC 29212.
Assay [15] deals with Staphylococcus aureus ATCC BAA-44.
For assay [16], the system named is Staphylococcus haemolyticus.
For assay [17], the system named is Staphylococcus aureus ATCC 43300.
The subject of assay [18] is Streptococcus sp. Group G.
Assay [19] deals with Streptococcus sp. Group C.
Assay [20] concerns Staphylococcus epidermidis.
Assay [21] has as its system Staphylococcus saprophyticus.
Assay [22] has as its system Escherichia coli ATCC 35218.
The test system of assay [23] is Staphylococcus aureus ATCC 29213.
For assay [24], the system named is Pseudomonas aeruginosa ATCC BAA-427.
Assay [25] has as its system Klebsiella pneumoniae ATCC 27736.
Assay [26] concerns Staphylococcus aureus ATCC 9144.
Assay [27] has as its system Escherichia coli ATCC 10536.
The test system of assay [28] is Trichophyton mentagrophytes.
Assay [29] has as its system Staphylococcus epidermidis NRRL B-4268.
The subject of assay [30] is Bacillus subtilis ATCC 6633.

Values after ≈ are worked out from the molar mass of the structure shown.

On to `CC(C)C[C@H](NC(=O)CNC(=O)[C@H](C)NC(=O)[C@H](CCCCN)NC(=O)[C@H](CCCCN)NC(=O)[C@@H](N)CC(N)=O)C(=O)N[C@@H](Cc1ccccc1)C(=O)N[C@H](C(=O)N[C@H](C(=O)N[C@@H](CCC(N)=O)C(=O)N[C@@H](Cc1ccccc1)C(=O)N1CCC[C@H]1C(=O)N[C@@H](CCCCN)C(=O)N[C@@H](CCCCN)C(=O)N[C@@H](Cc1ccc(O)cc1)C(=O)O)C(C)C)C(C)C` [NKKAGLFVVQFPKKY], for which the MIC (as a rule, the lowest concentration found to suppress growth) in assay [1] is at least 64 µM; in the assay on Escherichia coli O157:H7 it was at least 64 µM; against Bacillus megaterium, 28.3 µM (≈ 50 µg/mL); in assay [2], at least 64 µM; against Vibrio cholerae, at least 52 µM; in assay [3] it was at least 64 µM.

With `CC[C@H](C)[C@H](NC(=O)[C@H](C)NC(=O)CNC(=O)[C@H](Cc1ccccc1)NC(=O)[C@@H](NC(=O)[C@@H](N)CC(=O)O)[C@@H](C)CC)C(=O)N[C@@H](Cc1c[nH]c2ccccc12)C(=O)N1CCC[C@H]1C(=O)N[C@@H](CC(C)C)C(=O)N[C@@H](C)C(=O)N[C@@H](CC(C)C)C(=O)NCC(=O)N[C@@H](C)C(=O)N[C@@H](CC(C)C)C(=O)N[C@@H](CCCCN)C(=O)N[C@@H](CC(N)=O)C(=O)N[C@@H](CC(C)C)C(=O)N[C@H](C(=O)N[C@@H](CCCCN)C(N)=O)[C@@H](C)CC` [DIFGAIWPLALGALKNLIK], the MIC is over 128 µM in assay [4]; 16 µM (≈ 32.8 µg/mL) in [5]; 16 µM (≈ 32.8 µg/mL) in [6]; 16 µM (≈ 32.8 µg/mL) in the assay with Candida krusei ATCC 6258; over 128 µM in assay [7]; 4 µM (≈ 8.21 µg/mL) in assay [8]. Moreover, the figures for the MIC in [9] and in assay [10] were 16 µM (≈ 32.8 µg/mL) and 8 µM (≈ 16.4 µg/mL), respectively.

Consider `CC[C@H](C)[C@H](NC(=O)[C@H](CCCN=C(N)N)NC(=O)[C@H](CCCN=C(N)N)NC(=O)[C@H](CC(C)C)NC(=O)[C@H](Cc1ccccc1)NC(=O)[C@H](Cc1ccccc1)NC(=O)[C@@H](N)Cc1ccccc1)C(=O)N[C@@H](Cc1ccccc1)C(=O)O` [FFFLRRIF], for which the minimal inhibitory concentration (MIC) in [11] is at least 50 µM; in [4], over 100 µM; in [12], over 100 µM; with Saccharomyces cerevisiae, at least 100 µM; in assay [13], at least 100 µM; in assay [5] it was at least 100 µM. Moreover, the MIC was over 100 µM in [14]; at least 100 µM in the assay on Listeria ivanovii; over 100 µM in [7]; at least 100 µM in [15]; at least 100 µM in assay [9]; 100 µM (≈ 115 µg/mL) in assay [10].

Take `NC(=O)[C@H](Cc1c[nH]c2ccccc12)NC(=O)[C@H](Cc1c[nH]c2ccccc12)NC(=O)[C@H](Cc1c[nH]c2ccccc12)NC(=O)[C@H](Cc1c[nH]c2ccccc12)NC(=O)[C@@H]1CCCN1C(=O)[C@H](CCCN=C(N)N)NC(=O)[C@@H]1CCCN1C(=O)[C@H](CCCN=C(N)N)NC(=O)[C@@H]1CCCN1C(=O)[C@H](CCCN=C(N)N)NC(=O)[C@@H]1CCCN1C(=O)[C@H](CCCN=C(N)N)NC(=O)[C@@H](N)CCCN=C(N)N` [RRPRPRPRPWWWW]: the minimum inhibitory concentration (MIC) in assay [16] came out at 4.14 µM (≈ 8 µg/mL); in assay [11], 8.28 µM (≈ 16 µg/mL); in assay [4] it was 8.28 µM (≈ 16 µg/mL); against Streptococcus pyogenes, 11.7 µM (≈ 22.6 µg/mL); in assay [17], 8.28 µM (≈ 16 µg/mL); in [18], 11.7 µM (≈ 22.6 µg/mL). Further, the minimum inhibitory concentration (MIC) was 8.28 µM (≈ 16 µg/mL) in the assay on Escherichia coli; 11.7 µM (≈ 22.6 µg/mL) in the assay on Staphylococcus aureus; 4.14 µM (≈ 8 µg/mL) in [19]; 4.14 µM (≈ 8 µg/mL) in assay [20]; at least 33.1 µM in assay [21]; 8.28 µM (≈ 16 µg/mL) in assay [22]. Further, the minimal inhibitory concentration (MIC) in assay [7] came out at 33.1 µM (≈ 64 µg/mL); against Pseudomonas aeruginosa it was 66.2 µM (≈ 128 µg/mL); in assay [23] it was 8.28 µM (≈ 16 µg/mL); in the assay with Escherichia coli ESBL, 16.6 µM (≈ 32 µg/mL).

Regarding `CC(C)C[C@H](NC(=O)[C@H](CCCCN)NC(=O)[C@H](CC(C)C)NC(=O)[C@@H](NC(=O)[C@H](CCCN=C(N)N)NC(=O)[C@H](CCCN=C(N)N)NC(=O)[C@@H](NC(=O)[C@H](Cc1c[nH]c2ccccc12)NC(=O)[C@H](CCCCN)NC(=O)[C@H](CCCN=C(N)N)NC(=O)[C@@H](NC(=O)[C@H](CCCN=C(N)N)NC(=O)[C@H](CCCN=C(N)N)NC(=O)[C@@H](N)C(C)C)C(C)C)C(C)C)C(C)C)C(=O)N[C@H](C(N)=O)C(C)C` [VRRVRKWVRRVLKLV], the MIC in [24] worked out at 3.2 µM (≈ 6.28 µg/mL); against Cryptococcus neoformans it was 8.4 µM (≈ 16.5 µg/mL); in the assay with Staphylococcus aureus MR, 12.5 µM (≈ 24.5 µg/mL); in assay [25], 3.2 µM (≈ 6.28 µg/mL); in the assay on Aspergillus fumigatus, 8.4 µM (≈ 16.5 µg/mL); in assay [26], 5.1 µM (≈ 10 µg/mL). Further, the MIC in assay [27] was 3 µM (≈ 5.89 µg/mL); in assay [28] it was 6 µM (≈ 11.8 µg/mL); in the assay with Candida albicans it was 9.6 µM (≈ 18.8 µg/mL); in assay [29], 6 µM (≈ 11.8 µg/mL); in the assay with Sporothrix schenckii, 6 µM (≈ 11.8 µg/mL); in assay [30], 6.8 µM (≈ 13.3 µg/mL). In addition, the MIC in [9] worked out at 1.5 µM (≈ 2.94 µg/mL).
